Assay type in all cases: cell-based
One assay has as its system Fusarium culmorum. Put plainly: In vitro test on activity against Fusarium culmorum. To be noted: read-out: growth inhibition of the fungus.
Another assay relates to Leptosphaeria nodorum. The experiment in a line: In vitro test on activity against Leptosphaeria nodorum. The following applies: Parastagonospora nodorum, read-out: growth inhibition of the fungus. How it is done: The compound to be tested is processed in a culture medium consisting of 1% by weight of glucose, 0.2% by weight of a yeast extract (marmite), 0.5% by weight of a protein (pepton), 2.5% by weight of agar-agar, and 95.8% by weight of water, in petri dishes in concentrations of 3 and 10 ppm. The petri dishes are inoculated with the plant-pathogenic fungus Pyrenophora graminea and then kept at a temperature of 20° C. After 48 hours the growth-inhibiting activity of the compounds is determined visually. For comparison, the known substance (b) (see EXAMPLE XV) is also tested.
Compounds according to the invention are tested on i Leptosphaeria nodorum in the same manner as described in EXAMPLE XIX.

Another assay deals with Pythium splendens. The experiment in a line: In vitro test on activity against Pythium splendens. The following applies: Globisporangium splendens, read-out: growth inhibition of the fungus.

The inhibition is the relative decrease from the control value, in per cent.

In the case of `CC[S+]([O-])c1sc(C(=O)c2ccccc2)c(Cl)c1C#N` (stereo not drawn) [(92), 2-ethylsulphinyl-3-cyano-4-chloro-5-benzoylthiophene], the inhibition at 30 ppm was not below 75% with Fusarium culmorum and not below 85% in the assay with Leptosphaeria nodorum. Take `CCS(=O)(=O)c1sc(C#N)cc1C#N` [(16), 2-ethylsulphonyl-3,5-dicyanothiophene]: in the assay with Pythium splendens, the inhibition at 10 ppm was not below 95%. Consider `CC[S+]([O-])c1sc(C(=O)c2ccc(Cl)cc2)c(OC)c1C#N` (stereo not drawn) [(76), 2-ethylsulphinyl-3-cyano-4-methoxy-5-(4-chlorobenzoyl)thiophene], for which the inhibition at 30 ppm in the assay with Leptosphaeria nodorum was not below 85%. Turning to `CC[S+]([O-])c1sc(C(=O)c2ccccc2)c(N)c1C#N` (stereo not drawn) [(65), 2-ethylsulphinyl-3-cyano-4-amino-5-benzoylthiophene], the inhibition at 30 ppm is not below 75% in the assay with Fusarium culmorum and not below 85% with Leptosphaeria nodorum. `CC[S+]([O-])c1sc(C(=O)c2ccccc2)cc1C#N` (stereo not drawn) [(64), 2-ethylsulphinyl-3-cyano-5-benzoylthiophene]: the inhibition at 30 ppm in the assay with Fusarium culmorum is not below 75%; in the assay on Leptosphaeria nodorum, not below 85%. Regarding `CCS(=O)(=O)c1sc(S(C)(=O)=O)c(Cl)c1C#N` [(84), 2-ethylsulphonyl-3-cyano-4-chloro-5-methylsulphonylthiophene], the inhibition at 10 ppm in the assay with Pythium splendens was not below 95%. As for `CC[S+]([O-])c1sc(C(C)=O)c(NC)c1C#N` (stereo not drawn) [(17), 2-ethylsulphinyl-3-cyano-4-N-methylamino-5-acetylthiophene], in the assay on Pythium splendens, the inhibition at 10 ppm is not below 95%. In the assay on Leptosphaeria nodorum, the inhibition at 30 ppm was not below 85%. Consider `CCCCCCCC[S+]([O-])c1sc(C#N)cc1C#N` (stereo not drawn) [(81), 2-n-octylsulphinyl-3,5-dicyanothiophene], for which, in the assay with Fusarium culmorum, the inhibition at 30 ppm is not below 75%. As for `C[S+]([O-])c1sc(C=O)cc1C#N` (stereo not drawn) [(28), 2-methylsulphinyl-3-cyano-5-formylthiophene], in the assay on Pythium splendens, the inhibition at 10 ppm was not below 95%. The same measure, in the same setting: then `CC[S+]([O-])c1sc(C#N)c(N)c1C#N` (stereo not drawn) [(46), 2-ethylsulphinyl-3,5-dicyano-4-aminothiophene], with not below 95%. On the same count and under the same terms, then `CC(=O)COc1c(C(C)=O)sc([S+](C)[O-])c1C#N` (stereo not drawn) [(59), 2-methylsulphinyl-3-cyano-4-acetylmethoxy-5-acetylthiophene], with not below 95%.

As to `CCC[S+]([O-])c1sc(C(C)=O)c(C)c1C#N` (stereo not drawn) [(62), 2-n-propylsulphinyl-3-cyano-4-methyl-5-acetylthiophene], the inhibition at 30 ppm in the assay with Fusarium culmorum is not below 75%. Regarding `CCC[S+]([O-])c1sc(C(=O)c2ccccc2)c(OC)c1C#N` (stereo not drawn) [(75), 2-n-propylsulphinyl-3-cyano-4-methoxy-5-benzoylthiophene], the inhibition at 30 ppm is not below 75% in the assay with Fusarium culmorum and not below 85% in the assay on Leptosphaeria nodorum. For the compound `C[S+]([O-])c1sc(C(=O)c2ccccc2)cc1C#N` (stereo not drawn) [(30)], the inhibition at 10 ppm in the assay on Pythium splendens is not below 95%. In the case of `CCC[S+]([O-])c1sc(C(C)=O)c(Cl)c1C#N` (stereo not drawn) [(61), 2-n-propylsulphinyl-3-cyano-4-cloro-5-acetylthiophene], the inhibition at 10 ppm in the assay on Pythium splendens was not below 95%. Further, the inhibition at 30 ppm in the assay on Fusarium culmorum is not below 75%. Take `CC[S+]([O-])c1sc(S(C)(=O)=O)c(Cl)c1C#N` (stereo not drawn) [(77), 2-ethylsulphinyl-3-cyano-4-chloro-5-methylsulphonyl-thiophene]: the inhibition at 10 ppm in the assay on Pythium splendens was not below 95%. As to `CS/C(=C(\C#N)c1ccccc1)[S+](C)[O-]` (stereo not drawn) [(93), α-cyano-β-methylsulphinyl)-β-methylthio-styrene, E-isomer], in the assay on Pythium splendens, the inhibition at 10 ppm is not below 95%. The inhibition at 30 ppm in the assay on Fusarium culmorum is not below 75%. Take `CC[S+]([O-])c1sc(C#N)c(-n2ccnc2)c1C#N` (stereo not drawn) [(69), 2-ethylsulphinyl-3,5-dicyano-4-(imidazol-1-yl)thiophene]: in the assay on Pythium splendens, the inhibition at 10 ppm was not below 95%. For the compound `CCC[S+]([O-])c1sc(C(C)=O)c(N)c1C#N` (stereo not drawn) [(57), 2-n-propylsulphinyl-3-cyano-4-amino-5-acetylthiophene], the inhibition at 10 ppm in the assay with Pythium splendens was not below 95%. Besides, in the assay on Fusarium culmorum, the inhibition at 30 ppm was not below 75%. As for `C[S+]([O-])c1sc(S(C)(=O)=O)cc1C#N` (stereo not drawn) [(60), 2-methylsulphinyl-3-cyano-5-methylsulphonylthiophene], the inhibition at 10 ppm with Pythium splendens was not below 95%. For the compound `CC[S+]([O-])c1sc(C#N)c(C)c1C#N` (stereo not drawn) [(63), 2-ethylsulphinyl-3,5-dicyano-4-methylthiophene], in the assay with Leptosphaeria nodorum, the inhibition at 30 ppm was not below 85%.

In the case of `CCCC[S+]([O-])c1sc(C(=O)c2ccccc2)cc1C#N` (stereo not drawn) [(90), 2-n-butylsulphinyl 3-cyano-5-benzoylthiophene], the inhibition at 30 ppm in the assay on Fusarium culmorum is not below 75%. For `CC[S+]([O-])c1sc(C#N)c(N(C)C(C)=O)c1C#N` (stereo not drawn) [(54), 2-ethylsulphinyl-3,5-dicyano-4-(N-acetyl-N-methylamino)thiophene], the inhibition at 10 ppm in the assay with Pythium splendens is not below 95%. `CCOC(=O)c1sc([S+]([O-])CC)c(C#N)c1Cl` (stereo not drawn) [(37), 2-ethylsulphinyl 3-cyano-4-chloro-5-ethoxycarbonylthiophene]: the results for the inhibition at 30 ppm with Fusarium culmorum and in the assay with Leptosphaeria nodorum were not below 75% and not below 85%, respectively. With `CC[S+]([O-])c1sc2cc(Cl)ccc2c1C#N` (stereo not drawn) [(20), 2-ethylsulphinyl-3-cyano 6-chloro-benzothiophene], in the assay with Leptosphaeria nodorum, the inhibition at 30 ppm is not below 85%. Turning to `CCC[S+]([O-])c1sc(C#N)c(OC)c1C#N` (stereo not drawn) [(55), 2-n-propylsulphinyl-3,5-dicyano-4-methoxythiophene], the inhibition at 10 ppm with Pythium splendens is not below 95%. Also, the inhibition at 30 ppm with Fusarium culmorum is not below 75%. Regarding `CCC[S+]([O-])c1sc(C(=O)c2ccc(Cl)cc2)cc1C#N` (stereo not drawn) [(73), 2-n-propylsulphinyl-3-cyano-5-(4-chlorobenzolyl)thiophene], the figures for the inhibition at 30 ppm with Fusarium culmorum and with Leptosphaeria nodorum were not below 75% and not below 85%, respectively. For the compound `CCS(=O)(=O)c1sc(C(C)=O)cc1C#N` [(21), 2-ethylsulphonyl-3-cyano-5-acetylthiophene], the inhibition at 10 ppm with Pythium splendens was not below 95%. Take `CC[S+]([O-])c1sc(C#N)c(-n2cncn2)c1C#N` (stereo not drawn) [(68), 2-ethylsulphinyl-3,5-dicyano-4-(1,2,4-triazol-1-yl)thiophene]: the inhibition at 10 ppm in the assay with Pythium splendens is not below 95%. Take `CCS(=O)(=O)c1sc(C#N)c(Cl)c1C#N` [(22), 2-ethylsulphonyl-3,5 dicyano-4-chlorothiophene]: the inhibition at 10 ppm in the assay on Pythium splendens was not below 95%. For the same compound, in the assay on Fusarium culmorum, the inhibition at 30 ppm is not below 75%.

On to `CCCCCC[S+]([O-])c1sc(C#N)c(N)c1C#N` (stereo not drawn) [(38), 2-n-hexylsulphinyl-3,5-dicyano-4-aminothiophene], for which the inhibition at 30 ppm in the assay with Fusarium culmorum was not below 75%.

Consider `CC[S+]([O-])c1sc(C(C)=O)c(OC)c1C#N` (stereo not drawn) [(23), 2-ethylsulphinyl-3-cyano-4-methoxy-5-acetylthiophene], for which the values for the inhibition at 30 ppm in the assay on Fusarium culmorum and in the assay on Leptosphaeria nodorum were not below 75% and not below 85%, respectively. As for `CCCC[S+]([O-])c1sc(C(C)=O)cc1C#N` (stereo not drawn) [(44), 2-n-butylsulphinyl-3-cyano-5-acetylthiophene], the inhibition at 30 ppm in the assay with Fusarium culmorum is not below 75%; in the assay with Leptosphaeria nodorum, not below 85%.

Take `CCS(=O)(=O)c1sc(C(C)=O)c(Cl)c1C#N` [(18), 2-ethylsulphonyl-3-cyano-4-chloro-5-acetylthiophene]: the inhibition at 10 ppm with Pythium splendens is not below 95%. Same read-out and setting: then `COc1c(C(C)=O)sc([S+](C)[O-])c1C#N` (stereo not drawn) [(25), 2-methylsulphinyl-3-cyano-4-methoxy-5-acetylthiophene], with not below 95%; and `CC[S+]([O-])c1sc(C=O)c(N)c1C#N` (stereo not drawn) [(49), 2-ethylsulphinyl-3-cyano-4-amino-5-formylthiophene], with not below 95%. Consider `CC[S+]([O-])c1sc(C#N)c(-c2ccccc2)c1C#N` (stereo not drawn) [(71), 2-ethylsulphinyl-3,5-dicyano-4-phenylthiophene], for which the inhibition at 30 ppm was not below 75% in the assay with Fusarium culmorum and not below 85% in the assay on Leptosphaeria nodorum. With `CC[S+]([O-])c1sc(C=O)c(Cl)c1C#N` (stereo not drawn) [(50), 2-ethylsulphinyl-3-cyano-4-chloro-5-formylthiophene], the inhibition at 10 ppm in the assay with Pythium splendens is not below 95%. Consider `C[S+]([O-])c1sc(C=O)cc1C=O` (stereo not drawn) [(70), 2-methylsulphinyl-3,5-diformylthiophene], for which the inhibition at 10 ppm in the assay with Pythium splendens is not below 95%. The same measure, in the same setting: then `CC[S+]([O-])c1sc(C=O)c(Cl)c1C=O` (stereo not drawn) [(83), 2-ethylsulphinyl-3,5-diformyl-4-chlorothiophene], with not below 95%; and `C[S+]([O-])c1sc(C=O)c(N)c1C#N` (stereo not drawn) [(48), 2-methylsulphinyl-3-cyano-4-amino-5-formylthiophene], with not below 95%; and `CC[S+]([O-])c1sc(C=O)c(C)c1C#N` (stereo not drawn) [(56), 2-ethylsulphinyl-3-cyano-4-methyl-5-formylthiophene], with not below 95%.

For `C[S+]([O-])c1sc2cccc(Cl)c2c1C#N` (stereo not drawn) [(11), 2-methylsulphinyl-3-cyano-4-chloro-benzothiophene], the inhibition at 30 ppm in the assay with Fusarium culmorum is not below 75%. On to `C[S+]([O-])c1sc(C=O)c(-c2ccc(Cl)cc2)c1C#N` (stereo not drawn) [(26), 2-methylsulphinyl-3-cyano-4-(4-chlorophenyl)-5-formylthiophene], for which the inhibition at 10 ppm with Pythium splendens is not below 95%. Turning to `CCOC(=O)c1sc([S+](C)[O-])c(C#N)c1N` (stereo not drawn) [(29), 2-methylsulphinyl-3-cyano-4-amino-5-ethoxycarbonylthiophene], the inhibition at 30 ppm with Fusarium culmorum was not below 75%. With `CC[S+]([O-])c1sc(C(C)=O)c(-c2ccccc2)c1C#N` (stereo not drawn) [(87), 2-ethylsulphinyl-3-cyano-4-phenyl-5-acetylthiophene], the figures for the inhibition at 30 ppm with Fusarium culmorum and in the assay with Leptosphaeria nodorum were not below 75% and not below 85%, respectively. For `CC[S+]([O-])c1sc(C(=O)c2ccccc2)c(C)c1C#N` (stereo not drawn) [(91), 2-ethylsulphinyl-3-cyano-4-methyl-5-benzoylthiophene], the inhibition at 30 ppm in the assay on Fusarium culmorum is not below 75%.

For the origin of these results see patent US4994485A, “Thio compounds having fungicidal activity” (Duphar International Research B.V., priority 1986, dated 1991).
